Assay results as given in a melting point compilation (Tetko et al.; mined from patent text by program, amines drawn as free bases though some values may be those of a salt).

First: O=C(O)Cc1cscc1Nc1c(Cl)cccc1Cl
Second: CCCSc1ncc(C(=O)N[C@@H](Cc2c[nH]cn2)C(=O)O)n1Cc1ccccc1Cl
The melting point of the first is higher: 179 to 180 °C for the first, 130 to 132 °C for the second.

First: COc1ccc(OC)c(NC(=O)C2OC(=O)c3ccccc3C2c2ccc(F)cc2)c1 (centres undefined)
Second: COc1ccc2c(c1)CN(CCc1ccc(NC(=O)c3cccc4c(=O)c5cccc(OC)c5[nH]c34)cc1)CC2
The melting point of the first is lower: 133 to 136 °C for the first, 213 to 216 °C for the second.

Compared with `CC(C)(C)OC(=O)NCC(=O)c1cccnc1`, `CC(C)(C)OC(=O)Nc1ncccc1Br` is higher in melting point: 98 to 99 °C for the first, 120 to 121 °C for the second.

First: O=c1oc2cc(O)c(F)cc2s1
Second: Cc1cc2c(cc1C)C(C(=O)O)SCC2=O (single isomer, unassigned; (-))
The melting point of the first is lower: 141 to 143 °C for the first, 177 to 178 °C for the second.

Compared with `Cc1cc([N+](=O)[O-])c(C)cc1SCc1cccc(C(F)(F)F)c1`, `O=[N+]([O-])c1ccc2oc(CCC(F)(F)F)cc2c1` is lower in melting point: 85 to 87 °C for the first, 70 to 71 °C for the second.

First: O=[N+]([O-])c1cc(F)cc2c(Cl)ccnc12
Second: CCOC(=O)c1cc(CC)sc1Nc1ccc(F)cc1[N+](=O)[O-]
The melting point of the first is higher: 120 to 130 °C for the first, 90 °C for the second.

Compared with `CN(C(=O)OC(C)(C)C)c1cccc(-c2nc(=O)c3ccccc3s2)n1`, `COS(=O)(=O)Cc1cccc(-c2nc(=O)c3ccccc3s2)n1` is lower in melting point: 196 °C for the first, 102 °C for the second.

First: CS(=O)(=O)c1ccc(-c2nc(C(F)(F)F)nc(N=[N+]=[N-])c2-c2ccccc2)cc1
Second: O=C1NC(=O)c2c1cc1ccc3c(c1c2-c1ccc(C(F)(F)F)cc1)OCO3
The melting point of the first is lower: 172 to 175 °C for the first, 304 to 306 °C for the second.

Compared with `CC(C)(C)NC(=S)c1nn(-c2ccc(F)cc2F)c2c1C1CCC2C1` (centres undefined), `Cn1c2c(c3cccc(F)c31)C(=O)NCCC2` is higher in melting point: 148 to 150 °C for the first, 233 to 235 °C for the second.

First: CCOC(=O)c1c(Nc2c(C)cccc2C)n[nH]c1C
Second: COC(=O)c1c(C)nc2c(C)cc(C)cc2c1-c1ccccc1Cl
The melting point of the first is higher: 131 to 137 °C for the first, 119 to 120 °C for the second.

First: Clc1ccc2cc(Br)sc2n1
Second: OCc1cc2ccc3ccccc3c2o1
The melting point of the first is higher: 116 °C for the first, 106 to 107 °C for the second.

First: CCc1nc2cnc3cc(C=CC(=O)N(C)C)ccc3c2n1CC(C)(C)O
Second: CN(C)CCNc1ccnc2cc(C(F)(F)F)ccc12
The melting point of the first is higher: 196 to 198 °C for the first, 110 to 113 °C for the second.

First: Cc1cc(Cl)cnc1NCCCNc1ncc(Cc2ccncc2)c(=O)[nH]1
Second: CC(=O)Nc1nc(C)c(CCC(C)c2ccc(Cl)cc2)c(NC(C)=O)n1 (centres undefined)
The melting point of the first is lower: 90 to 92 °C for the first, 136 to 138 °C for the second.

First: CCOc1nn(Cc2cccc(OCCn3ncc4ccccc4c3=O)c2)cc1CCC(=O)O
Second: CC(C)n1cc(-c2ccc(Oc3ccccc3)c(CO)c2)c2c(Cl)ncnc21
The melting point of the first is lower: 146 to 147 °C for the first, 157 to 159 °C for the second.

Compared with `CCCOc1ccccc1-c1nc2cc(N)ccc2c(=O)[nH]1`, `Cc1oc(-c2ccccc2)nc1COc1cccc(N)c1` is lower in melting point: 185 °C for the first, 89 to 90 °C for the second.

Compared with `Nc1cc(Cl)cc(C(F)(F)F)c1N`, `Cn1ccnc1NC(=O)c1c(C(F)(F)F)nc2c(C(F)(F)F)cccc2c1O` is higher in melting point: 53 °C for the first, 259 °C for the second.

Compared with `Cn1c(=O)n(C2CCNCC2)c2ccc(Cl)cc21`, `CN1C(=O)CC[C@]2(C)c3ccc(C(=O)c4ccccc4)cc3CC[C@@H]12` is lower in melting point: 201 °C for the first, 116 °C for the second.

First: O=C(NC1(C(=O)O)CCCCC1)OCc1ccccc1
Second: COc1cc(NCCCN(C)Cc2ccccc2)ccc1C(N)=O
The melting point of the first is higher: 152 to 154 °C for the first, 116 to 118 °C for the second.

First: CCC1(Cl)Cc2cc(OCCCC(=O)O)c(Cl)c(Cl)c2C1=O (centres undefined)
Second: CCCCOc1ccc([N+](=O)[O-])c(C(=O)O)c1
The melting point of the first is higher: 123 to 124 °C for the first, 82 to 84 °C for the second.

First: COc1nc(C)nc(NC(=O)NS(=O)(=O)c2cccnc2OCC2CC2)n1
Second: CS(=O)(=O)N[C@H]1CC[C@H](Nc2nccc(-n3ncc4ccccc43)n2)CC1
The melting point of the first is lower: 165 to 167 °C for the first, 270 °C for the second.

Compared with `CCCCC(=O)Nc1ccc2c(c1)C(=O)OC2CCCC` (centres undefined), `CCNc1cccc2c1OC1(CC1)C2=O` is lower in melting point: 137 to 139 °C for the first, 80.6 °C for the second.

Compared with `NS(=O)(=O)c1csc2cc(O)cnc12`, `Cc1ccsc1C(=O)Cc1ccccc1[N+](=O)[O-]` is lower in melting point: 245 to 247 °C for the first, 85 to 86.5 °C for the second.

Compared with `COc1cc(OC)nc(Oc2ccc3ccccc3c2C=O)n1`, `COc1ccc(C(=O)C=Cc2cccc([N+](=O)[O-])c2)c(OC)c1OC` is higher in melting point: 123 to 125 °C for the first, 130 to 131 °C for the second.

First: CNCc1cccc(CN(C)c2nc(=O)c3c(C)c(OC)c(OC)cc3[nH]2)c1
Second: COc1cc(OC)c2c(C)c(CCOS(C)(=O)=O)c(=O)oc2c1
The melting point of the first is higher: 179 to 181 °C for the first, 170 to 172 °C for the second.

Compared with `CC[C@@]1(O)CC(=O)c2c(OC)ccc(OC)c2C1`, `COc1cc2c(cc1OC)CCC(C(=O)O)=C2` is higher in melting point: 132 to 134 °C for the first, 191 to 194 °C for the second.

First: COc1ccc(C(=NOCc2ccccc2)c2cccc([N+](=O)[O-])c2)cc1
Second: CCOC(=O)C(C)(C)Oc1ccc(C=CC(=O)c2ccccc2)cc1
The melting point of the first is higher: 100 to 101 °C for the first, 68 to 70 °C for the second.

First: COC(=O)c1ccc([N+](=O)[O-])s1
Second: CC(=O)OCCn1c([N+](=O)[O-])cnc1C=O
The melting point of the first is lower: 74 °C for the first, 203 to 205 °C for the second.

First: CCn1c(=O)c2c(nc(/C=C/c3ccc(O)c(C)c3C)n2C)n(CC)c1=O
Second: CCN1C(=O)C(C)(C)C(=O)N(C)c2cc(CN(CCn3ccc4sccc4c3=O)Cc3cccnc3C)ccc21
The melting point of the first is higher: 240 to 242 °C for the first, 139 to 140 °C for the second.

Compared with `COC(=O)c1ccccc1C(=O)NN(C(=S)Nc1ccccc1)C(C)C`, `COC(=O)c1ccc(Cc2ccc(NC(C)=O)cc2)cn1` is higher in melting point: 145 to 147 °C for the first, 175 to 177 °C for the second.

Compared with `CCCn1nc2c(N)nc3ccccc3c2c1CCNC(=O)Nc1ccc(F)cc1`, `CCCn1nc(C(C)C)c(C(N)=O)c1Cc1ccc(-c2ccccc2S(=O)(=O)NC(=O)c2ccccc2)cc1` is lower in melting point: 201 to 202 °C for the first, 197 to 200 °C for the second.

Compared with `C#CCN(C)C(=O)N1CC(Oc2cccc(C(F)(F)F)c2)C1`, `O=C(N[C@H]1CCN(C(=O)c2cc(C(F)(F)F)cc(C(F)(F)F)c2)[C@H](Cc2ccc(Cl)cc2)C1)c1cc(=O)c2ccc(Cl)cc2o1` is higher in melting point: 71 to 73 °C for the first, 218 to 220 °C for the second.

First: O=C(NO)c1ccc(CNC(=O)c2[nH]c(-c3ccccc3)cc2-c2ccc(Cl)c(Cl)c2)cc1
Second: CC(C)(C)OC(=O)CC(Cc1ccccc1)NC(=O)C1Cc2ccccc2N1S(=O)(=O)c1ccc(-c2ccc(F)cc2)cc1 (centres undefined)
The melting point of the first is higher: 187 to 188 °C for the first, 67 to 73 °C for the second.

Compared with `CC(=O)Nc1ccc(OC2SCC(OC(C)=O)C(OC(C)=O)C2OC(C)=O)cn1` (centres undefined), `CC(=O)Oc1ccc(C(=O)O)cc1C(=O)c1ccccc1` is higher in melting point: 132 to 133 °C for the first, 162 to 163 °C for the second.

First: O=C(NCCCl)Sc1ncnc2nc[nH]c12
Second: Cc1cnc(C)c(N(CCN(C)C)C(=O)N(C)C)n1
The melting point of the first is higher: 221 to 223 °C for the first, 96 to 98 °C for the second.

First: COCCCNC(=O)Nc1ccc(N2CCOCC2)cc1C(=O)NCC1CCN(C(c2ccccc2)c2ccccc2)CC1
Second: COc1cc(N)c(Cl)cc1C(=O)NCC1CCN(CCC(=O)c2ccc(O)cc2)CC1
The melting point of the first is lower: 175 to 176 °C for the first, 191 to 193 °C for the second.

First: CCCCc1ncc[nH]1
Second: CCCCCCCCCCOC(=O)N[C@H]1CCCNC(=O)C1
The melting point of the first is lower: 35 to 37 °C for the first, 40 to 41 °C for the second.

Compared with `COc1ccc2c(c1)C(C(=O)Nc1ccc(C(C)C)cc1)CCC2` (centres undefined), `CC1(C)CCCCc2ccc(C(=O)O)cc21` is lower in melting point: 168 to 169 °C for the first, 155 to 156 °C for the second.

First: COC(=O)c1nc2cc(Cl)c(Cl)c(Cl)c2c(O)c1C(=O)OC
Second: Cc1nn(-c2cc(Oc3ccc(O)cc3)c(Cl)cc2F)c(=O)n1C(F)F
The melting point of the first is higher: 227 to 228 °C for the first, 162 °C for the second.

First: COc1cc2c(=O)n(NS(C)(=O)=O)c(=O)[nH]c2cc1[N+](=O)[O-]
Second: O=C1C(=O)N2CCCc3cc([N+](=O)[O-])cc1c32
The melting point of the first is higher: greater than 280 °C for the first, 198 to 199 °C for the second.

Compared with `O=C(Nc1cccnc1Cl)N1CCc2ccccc2CC1`, `O=C1c2ccccc2CCn2cnnc21` is higher in melting point: 120 to 122 °C for the first, 187 °C for the second.

First: Cn1cc(C(=O)C(=O)Oc2c(F)c(F)c(F)c(F)c2F)c2ccccc21
Second: CS(=O)(=O)c1cncc(-c2nc(=O)c3ccccc3s2)n1
The melting point of the first is lower: 168 to 169 °C for the first, 232 to 233 °C for the second.

First: O=c1c(C2CC2)c(N2CCC(c3ccccc3)CC2)ccn1CC1CC1
Second: O=C(c1ccc(F)cc1)c1noc(CN2CCN(c3ccccc3)CC2)n1
The melting point of the first is higher: 202 °C for the first, 72 to 74 °C for the second.

First: c1csc(N2CCN(Cc3ccc4sccc4c3)CC2)n1
Second: OCCCc1ccc(Nc2ncc(-c3ccccc3)s2)nc1
The melting point of the first is lower: 80 to 82 °C for the first, 153 to 154 °C for the second.

First: CC1(C)OC(=S)Nc2ccc(-c3ccc(C#N)o3)cc21
Second: COc1ccc(C=C2NC(=O)NC2=O)cc1
The melting point of the first is lower: 200 °C for the first, 242 to 244 °C for the second.

First: N#Cc1ccccc1/C=C/C=O
Second: N#Cc1c(-c2ccccc2)c(Cl)n2c1CNCC2
The melting point of the first is lower: 107 to 110 °C for the first, 128 to 130 °C for the second.

First: CC(Cc1ccc(C(=O)C(C)(C)O)cc1)C(=O)O (centres undefined)
Second: CCOC(=O)C1(O)c2ccccc2S(=O)(=O)N1C(C)(C)C (centres undefined)
The melting point of the first is lower: 57 °C for the first, 93 to 95 °C for the second.

Compared with `Cc1nc(-c2ncn3c2COC(=O)c2c(Cl)cccc2-3)no1`, `Cc1c[nH]c2cc(-c3nn(C(C)c4oc5ccccc5c(=O)c4-c4cccc(F)c4)c4ncnc(N)c34)ccc12` (centres undefined) is higher in melting point: 253 to 255 °C for the first, 262 to 265 °C for the second.

Compared with `CSc1noc(-c2ccc(OCCCCOc3ccccc3)cc2)c1C#N`, `COc1ccc(C(=O)N2CCC(Nc3nccc(-c4c(-c5ccc(F)cc5)nc5occn45)n3)CC2)cc1` is higher in melting point: 113 to 114 °C for the first, 196 to 197 °C for the second.

First: CC(C)(C)OC(=O)NC(CC#N)COc1noc2ccc(Cl)cc12 (centres undefined)
Second: CC[C@H](C)[C@H](N)C(=O)NC(C)COc1ccc(C#N)cc1 (some centres undefined)
The melting point of the first is higher: 147 to 148 °C for the first, 64 to 67 °C for the second.

Compared with `O=C(N1CCCC1)C1(N2CCCCC2)CCNCC1`, `CCOC(=O)C(C(N)=O)C12CC3CC(CC(C3)C1)C2` (centres undefined) is lower in melting point: 144 °C for the first, 97 to 98 °C for the second.

Compared with `CC(C)C(=O)N1CCC(c2nc3cc(-c4ccc(C(N)=O)c(F)c4)ccc3o2)CC1`, `CC(C#N)c1coc2cc(I)ccc12` (centres undefined) is lower in melting point: 193 to 196 °C for the first, 71 to 72 °C for the second.

First: CN1c2ccncc2NCc2cccn21
Second: O=C(Cl)c1c(Br)c(Br)c([N+](=O)[O-])c2c1OCCO2
The melting point of the first is lower: 135 to 140 °C for the first, 215 °C for the second.
